# Earlier results, collected in patent US11602509B2, “Salt of cysteamine for the preparation of highly respirable particles” (RECORDATI INDUSTRIA CHIMICA E FARMACEUTICA SPA, priority 2018, dated 2023).
compound,measurement,value
"NCCS [cysteamine free base, cysteamine]",pKa,9.42
